# Results taken from patent publication US12472230B2, “Peptides and methods of use thereof in treating uveitis” (Park Strategic Ventures LLC, priority 2019, dated 2025).
# Residues, ends and D or L forms follow the SMILES beside them. No end group written: not given here. *: point of attachment. Myristoyl = CCCCCCCCCCCCCC(=O)*
# Assays:
# Solubility in HNS = format: physicochemical
# T/2 in human plasma = format: in vitro ADME
# [1] = system: release of inflammatory mediators from leukocyte cell types; assay: Release of inflammatory mediators from leukocyte cell types, MANS versus RNS; format: cell-based, human; conditions: each of the cell types examined; time course of 0.5-3.0 hrs
# Description: In an in vitro method to inhibit or attenuate the release of a mediator of inflammation such as those described herein, each of the cell types is preincubated with a peptide compound or peptide composition of this disclosure over a range of concentrations followed by incubation of these cells by a stimulator of release of inflammatory mediators, such as phorbol ester. The percent of inhibition of release of a mediator of inflammation is determined as compared to the release of the mediator in the absence of the peptide compound or peptide composition, such as in a specrophotometric readout of a concentration of the mediator released.
Compound,solubility (Solubility in HNS),half-life (T/2 in human plasma),other results
CCCCCCCCCCCCCC(=O)NCC(=O)N[C@@H](C)C(=O)N[C@@H](CCC(N)=O)C(=O)N[C@@H](Cc1ccccc1)C(=O)N[C@@H](CO)C(=O)N[C@@H](CCCCN)C(=O)N[C@H](C(=O)N[C@@H](C)C(=O)N[C@@H](C)C(=O)N[C@@H](CCCCN)C(N)=O)[C@@H](C)O [BIO-11002] (Myristoyl-GAQFSKTAAK-NH2),< 10 mg/mL,–,"T/2 (human plasma), in words (T/2 in human plasma): stable"
C[C@@H]1NC(=O)CNC(=O)[C@H](CCCCN)NC(=O)[C@H](C)NC(=O)[C@H](C)NC(=O)[C@H]([C@@H](C)O)NC(=O)[C@H](CCCCN)NC(=O)[C@H](CO)NC(=O)[C@H](Cc2ccccc2)NC(=O)[C@H](CCC(N)=O)NC1=O [BIO-11007] (cyclo(GAQFSKTAAK); ring closure inferred),150 mg/mL,–,–
CCCCCCCCCCCCCC(=O)NCC(=O)N[C@@H](C)C(=O)N[C@@H](CCC(N)=O)C(=O)N[C@@H](Cc1ccccc1)C(=O)N[C@@H](CO)C(=O)N[C@@H](CCCCN)C(=O)N[C@H](C(=O)N[C@@H](C)C(=O)N[C@@H](C)C(=O)N[C@@H](CCCCN)C(=O)NCC(=O)N[C@@H](CCC(=O)O)C(=O)N[C@@H](C)C(=O)N[C@@H](C)C(=O)N[C@@H](C)C(=O)N[C@@H](CCC(=O)O)C(=O)N[C@@H](CCCNC(=N)N)C(=O)N1CCC[C@H]1C(=O)NCC(=O)N[C@@H](CCC(=O)O)C(=O)N[C@@H](C)C(=O)N[C@@H](C)C(=O)N[C@H](C(=O)N[C@@H](C)C(=O)O)C(C)C)[C@@H](C)O [MANS] (Myristoyl-GAQFSKTAAKGEAAAERPGEAAVA-OH; C-terminus assumed),< 5 mg/mL,12 min,–
Ac-GAQFSKTA-OH [BIO-10803],200 mg/mL,–,–
Ac-GAQFSKTAAKGE-NH2 [BIO-11211],60 mg/mL,> 156 min,–
Ac-GAQFSKTAAKGEAAAERPGEAAVA-OH [Ac-MANS],125 mg/mL,–,–
"BIO-11018: SEQ ID NO 106 pegylated (GAQFSKTAAK; also: PEGylated, site not given here)",–,–,Solubility in HNS (Solubility in HNS): >100 mg/mL
GTAPAAEGAGAEVKRASAEAKQAF [RNS],–,–,release of inflammatory mediators [1]: not
H-GAQFSKTAAK-NH2 [BIO-11005],100 mg/mL,20 min,–

# Further lines, with some results ahead:
solubility (Solubility in HNS),Compound,half-life (T/2 in human plasma),other results
15 mg/mL,CCCCCCCCCCCCCC(=O)NCC(=O)N[C@@H](C)C(=O)N[C@@H](CCC(N)=O)C(=O)N[C@@H](Cc1ccccc1)C(=O)N[C@@H](CO)C(=O)N[C@@H](CCCCN)C(=O)N[C@H](C(=O)N[C@@H](C)C(=O)N[C@@H](C)C(=O)N[C@@H](CCCCN)C(=O)O)[C@@H](C)O [BIO-11000] (Myristoyl-GAQFSKTAAK-OH),72 min,–
~1 mg/mL,"CCCCCCCCCCCCCC(=O)N[C@@H](C)C(=O)N[C@@H](CCCCN)C(=O)NCC(=O)N[C@@H](CCC(=O)O)C(=O)O [BIO-91200, Ma-AKGE-OH] (Myristoyl-AKGE-OH)",–,–
200 mg/mL,"CC(=O)N[C@@H](C)C(=O)N[C@@H](CCCCN)C(=O)NCC(=O)N[C@@H](CCC(=O)O)C(=O)O [BIO-91201, Ac-AKGE-OH] (Ac-AKGE-OH)",–,–
200 mg/mL,"CC(=O)N[C@@H](C)C(=O)N[C@@H](CCCCN)C(=O)NCC(=O)N[C@@H](CCC(=O)O)C(N)=O [BIO-91202, Ac-AKGE-NH2] (Ac-AKGE-NH2)",–,–
> 60 mg/mL,Ac-GAQFSKTAA-OH [BIO-10901],5 min,–
